{"source": "patent US6589938B2", "about": "“Use of angiotensin I derivatives as an agent for the treatment and prevention of infarction-related cardiac injuries and disorders” (National University of Singapore, priority 2001, dated 2003)", "system": "experimentally-infarcted rats", "test": "Infarct scar area and transmurality after coronary occlusion and reperfusion in rats", "format": "in vivo, Sprague Dawley rats", "details": "for Transmurality, Treated: infarct scar area divided by infarct area; for Transmurality, Treated / Infarct Scar Area, Treated: mean ± SEM, 7 rats; for Infarct Scar Area, Treated: left ventricle", "method": "The experimental protocol for induction of cardiac infarction by coronary occlusion and reperfusion in rats was carried out as described by Oh et al. (10). Briefly, each rat was anaesthetized with 7% w/v chloral hydrate (0.4 g/kg, i.p.). Each anaesthetised animal was intubated and ventilated with a rodent ventilator. Under a dissecting microscope, a left thoracotomy was performed in the fourth intercostal space, and the pericardium open. The left coronary artery was encircled with a curved needle and a silk suture. The left coronary artery was ligated for 45 minutes, followed by reperfusion. In sham-operated animals, the left coronary artery was not ligated. The chest was closed in layers and the pneumothorax evacuated.\nFollowing the surgery, each animal was placed in a cage. The animals had access to water and rat chow ad libitum. The animals were randomly divided into the control group and treatment group. Each group consisted of 7 animals. The treatment group was orally administered 381 nmoles/kg/day of des-Asp-angiotensin I (dissolved in 1 ml water) for 14 days. The control group was similarly administered an equivalent volume of water. The experiment was repeated with the following doses of des-Asp-angiotensin I: 762, 1524, and […] nmoles/kg/day.\nOn the fourteenth day following surgery, animals were anaesthetised as before. Rats were ventilated as before and the thorax was opened. A polyethylene catheter (PE 200) was introduced into the left ventricle (via the left atrial appendage) and another into the descending aorta retrogradely. The heart was arrested with 2 ml injection of saturated KCl solution into the right atrium. After aortic perfusion with heparinized saline (10,000 units/L) for 3 minutes to wash out the blood, the myocardium was perfused retrogradely from the aorta with 4% phosphate-buffered paraformaldehyde at a constant pressure of 60 mm Hg for 20 minutes. The right atrium and pulmonary artery were opened to decompress the right ventricle during fixation. The left ventricle intracavity pressure was maintained at 10 mm Hg by use of the cathether introduced via the left atrial appendage.\nAfter hardening, the heart was excised and postfixed in 4% paraformaldehyde for 24 hours. Following postfixing, the atria and adhensions were carefully dissected away and the right and left ventricles were separated, the interventricular septum being included with the left ventricle. The left ventricle was processed for paraffin embedment. Transverse serial sections of 40 μm thick were cut from the apex of the ventricle to its base. Every section at 1 mm intervals was mounted and stained with Milligan's trichrome. The infracted tissue (infarct scar) was stained blue. Two sections, taken at 5 and 6 mm, respectively, from the apex of each ventricle were used for morphometric determination of the infarct scar area and transmurality. The morphometry system consisted of a BX40 light microscope (Olympus, Japan) fitted with a KYF55B colour video camera (JVC, Japan) and a Pentium 166 MHz/MKX microcomputer (Datamini, Singapore) installed with an image Pro Plus 3.0 System (Media Cybernetics, USA) for Windows 95™. The infarct scar area, infarct area (which measured the scar and the surrounding surviving ventricular tissue) were determined in mm2. Transmurality is equal to the infarct scar area divided by infarct area.\nThe results of the study are summarized in Table 2 Data were expressed as mean±SEM. Significant differences were determined by one way ANOVA and post hoc Newman Kleuf test. The accepted level of significance was p<0.05. […] The effect was dose dependent and significant anti-infarction action was brought about by an oral dose of 1524 nmoles/kg/day.", "key": {"[1]": {"details": "381 nmole/kg/day orally for 14 days"}, "[2]": {"details": "762 nmole/kg/day orally for 14 days"}, "[3]": {"details": "1524 nmole/kg/day orally for 14 days, * p < 0.05 vs Control"}, "[4]": {"details": "3096 nmole/kg/day orally for 14 days, * p < 0.05 vs Control"}}, "data": [{"substance": "Des-Aspartate angiotensin I [des-Asp-angiotensin I]", "values": [{"measurement": "Transmurality, Treated", "setting": "[1]", "value": "32.93 ± 1.94", "unit": "%"}, {"measurement": "Infarct Scar Area, Treated", "setting": "[1]", "value": "5.85 ± 0.25", "unit": "mm^2"}, {"measurement": "Transmurality, Treated", "setting": "[2]", "value": "33.70 ± 3.40", "unit": "%"}, {"measurement": "Infarct Scar Area, Treated", "setting": "[2]", "value": "5.60 ± 0.30", "unit": "mm^2"}, {"measurement": "Transmurality, Treated", "setting": "[3]", "value": "24.67 ± 2.37* %"}, {"measurement": "Infarct Scar Area, Treated", "setting": "[3]", "value": "5.11 ± 0.54* mm^2"}, {"measurement": "Transmurality, Treated", "setting": "[4]", "value": "31.26 ± 1.53* %"}, {"measurement": "Infarct Scar Area, Treated", "setting": "[4]", "value": "5.86 ± 0.20* mm^2"}, {"measurement": "attenuating the infarct size area and transmurality", "setting": "experimentally-induced myocardial infarcted rats, oral, 14 days", "value": "effective agent"}, {"measurement": "oral dose that brought about significant anti-infarction action", "setting": "oral, 14 days, p<0.05, one way ANOVA", "value": 1524, "unit": "nmol/kg/day"}]}]}
